One compound from patent US20200255828A1, “METHODS AND COMPOSITIONS FOR ALTERING FUNCTION AND STRUCTURE OF CHROMATIN LOOPS AND/OR DOMAINS” (THE BROAD INSTITUTE, INC., priority 2017, published 2020) can be followed below.

Assay [1] has as its system HCT-116 RAD21-mAC cells. As to the kind of experiment: PRO-Seq nascent transcription after cohesin loss. The assay is classed as cell-based, human. The source says: Finally, Applicants sought to investigate the role of cohesin in regulating gene expression. Cohesin has been proposed to facilitate interactions between enhancers and promoters (Kagey et al., 2010; Merkenschlager and Nora, 2016). Loop domains are thought to regulate this process by preventing enhancers from forming ectopic interactions with targets that lie in a different loop domain (Lupiáñez et al., 2015; Flavahan et al., 2016). Applicants therefore characterized the effects of cohesin loss on nascent transcription by performing precision nuclear run-on sequencing (PRO-Seq) in treated and untreated HCT116 cells (Engreitz et al., 2016; Jonkers and Lis, 2015) (FIG. 7A). Applicants chose an early timepoint—6 hours after auxin treatment—with the aim of examining direct consequences, rather than indirect effects due to changes in cell state.
To measure changes in transcription resulting from cohesin loss, Applicants performed precision run-on sequencing (PRO-Seq) (Jonkers and Lis, 2015), a variant of global run-on sequencing (GRO-Seq), using a single biotinylated nucleotide (biotin-11-CTP) as previously described (Engreitz et al., 2016). Applicants made one modifications to the protocol: at the end of each biotin enrichment, Applicants eluted biotinylated RNAs from the streptavidin-coated magnetic beads by heating beads in 25 μl of 20 mM Tris-HCl pH 7.5, 10 mM EDTA, 2% N-lauroylsarcosine at 95° C. for 5 minutes, followed by a magnetic-bead nucleic acid purification with 20 μl of MyONE SILANE beads. During the nuclei preparation step, Applicants processed pairs of RAD21-mAC cells with and without auxin treatment in parallel. In addition, Applicants performed PRO-Seq on HCT-116 CMV-OsTIR1 cells, the parental cell line of RAD21-mAC containing the OsTIR1 gene integrated at the AAVS1 locus and no mAID tags integrated on any protein. By performing PRO-Seq on CMV-OsTIR1 cells with and without auxin treatment, Applicants could control for transcriptional effects of the auxin treatment itself on HCT-116 cells, as well as any consequences of tagging the RAD21 protein.
For analysis of PRO-Seq data, Applicants aligned 30-bp paired-end reads to the hg19 reference (bowtie2 v2.1.0, (Langmead and Salzberg, 2012)), removed duplicate reads (Picard picard.sourceforge.net), and discarded reads with MAPQ <30. Applicants counted reads overlapping RefSeq genes (collapsed by gene symbol to the longest isoform)—this quantification procedure includes signal both at the paused position (near the TSS) as well as in the gene body. Applicants identified genes showing significant differences in transcription with DESeq2 (Love et al., 2014), excluding genes with zero coverage in all samples and calling significance at Benjamini-Hochberg corrected p-value <0.05.
To determine whether there were global changes in the total amount of transcription (up or down) that would affect the normalization and analysis of these experiments, Applicants included a spike-in control in three of the four PRO-Seq replicates for each of untreated and treated RAD21-mAC and CMV-OsTIR1 cells. Specifically, Applicants added ˜500,000 Drosophila S2 cells at the beginning of the protocol. Upon sequencing of these libraries, Applicants counted the number of spike-in reads by aligning to the Drosophila genome (dme13) with bowtie2 v2.1.0.
Assessment of changes in transcription after cohesin loss. […]

Assay [2] concerns HCT-116 RAD21-mAC cells. As to the kind of experiment: APA for cohesin-independent links after cohesin degradation with ATP depletion. The settings on record: auxin 6 hours, without any additional treatment. The assay is classed as cell-based, human. From the text: Using the degron system, Applicants can directly measure the influence of cellular processes on loop formation (Vian et al, 2018). […] Applicants also tested interchromasomal cohesin-independent links requirement for ATP after cohesin degradation and observed that depletion of ATP strengthens the interactions between superenhancers (FIG. 23).

SMILES strings stand for the structures.

On to `O=C(O)Cc1c[nH]c2ccccc12` [auxin, indole-3-acetic acid], for which, in the assay with HCT-116 RAD21-mAC cells [1] (upon auxin treatment), the AKAP12 expression down-regulation is 3.3 fold, the IER5L expression down-regulation is 2.6 fold and the KITLG expression down-regulation is listed as 2.73 fold. The “number of genes 2-fold downregulated with p<0.05 after auxin treatment” value in the assay on HCT-116 RAD21-mAC cells [1] (vs untreated HCT-116-CMV-OsTIR1 control) stood at 43. In addition, in the assay with HCT-116 RAD21-mAC cells [1] (vs untreated RAD21-mAC cells), the “number of genes 1.75-fold downregulated with p<0.05 after auxin treatment” value was 49. Also, in the assay on HCT-116 RAD21-mAC cells [2], the “APA score for cohesin-independent links” value came out at 8.28.
